Measured values from article PMC7806726, “Activated neutrophil fluorescent imaging technique for human lungs” (Scientific Reports, 2021).
Numbered stars: 1 amine (or outer) side, 2 acyl side, 3 side chain; on linkers, the order of the positions; unused ones are H or OH. Bridge positions count the residues as written; N and C are the ends. Square brackets hold non-standard residues; d marks the D form. Peptide text beside a SMILES is read from it. I, II: the chains in the order shown. * marks the point of attachment. 5FAM = O=C1OC2(c3ccc(O)cc3Oc3cc(O)ccc32)c2ccc(C(=O)*)cc21; X1 = NC(=O)NC(COCCCN[*:1])(COCCCN[*:2])COCCCN[*:3]; Nle = CCCC[C@H](N)C(=O)O; AEEA = NCCOCCOCC(=O)O

Key:
[1] = system: freshly isolated neutrophils; experiment: Flow cytometry of intracellular NAP fluorescence in isolated neutrophils; assay type: cell-based, human; details: A23187 10 µM activated neutrophils, NAP 5 µM; Dynasore Hydrate 30 µM, DPI 10 µM, Sivelestat 100 µM; 30 min 37 °C
Experimental: Neutrophils were suspended in PBS with divalent cations at a concentration of 10 × 10^6/mL. […] Incubation took place at 37 °C for 30 min and samples were shaken at 500 rpm using an orbital plate shaker (Thermomixer comfort, Eppendorf, Hamburg, Germany). Suspensions were then incubated with anti-human CD11b-APC (1:100 dilution, Clone ICRF44, Biolegend, CA, USA) at 22 °C for 30 min at 500 rpm before the application of NAP to a final concentration of 5 µM for 15 min at 22 °C and 500 rpm. Cells were washed in PBS without divalent cations at 350 g for 5 min at room temperature using a microtube centrifuge (Biofuge fresco, Heraeus, Hanau, Germany) and reconstituted in 175 µL PBS without divalent cations. Samples were loaded onto a 96 round-bottomed well plate (Corning).
Flow cytometry was performed using an Accuri C6 flow cytometer and BD CSampler software (both Becton–Dickinson, NJ, USA). Compensation beads and single stain controls were used where appropriate. […] The cytometer was thresholded on forward scatter to eliminate debris. The cytometer was aligned monthly using Calibrite 3, APC and 8 peak beads (Becton–Dickinson) to calibrate scatter and fluorescence parameters.
Data analyses were performed using Flowjo v10.0.8r1 (Treestar, Ashland, OR, USA). Samples were repeated in duplicate for each individual donor and pooled to yield a point estimate for each condition and each donor. The point estimates from different donors were pooled to yield an overall mean point estimate for each condition ± SE.

[2] = Change in fluorescence with pH (plate reader); assay type: physicochemical; details: carboxyfluorescein 15 µM, freshly made pH buffer; n = 1, in triplicate
[3] = target: T1, human neutrophil elastase (HNE) (Homo sapiens, UniProt P08246); experiment: Plate reader assessment of probe de-quenching with purified HNE; assay type: biochemical
T1 construct: purchased Elastin Products Company, MO, USA
T1 sequence (P08246 30-267): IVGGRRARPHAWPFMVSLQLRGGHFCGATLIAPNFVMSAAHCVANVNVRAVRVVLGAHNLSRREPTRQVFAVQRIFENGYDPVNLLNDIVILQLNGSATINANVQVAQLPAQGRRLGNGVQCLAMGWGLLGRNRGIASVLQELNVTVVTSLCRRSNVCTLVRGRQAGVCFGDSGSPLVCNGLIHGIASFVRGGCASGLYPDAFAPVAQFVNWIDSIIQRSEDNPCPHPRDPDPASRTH
Experimental: To generate an emission spectrum, NAP was excited at 430 nm to ensure the spectrum could be visualized to the x-axis. Excitation/absorbance spectra were obtained with NAP diluted to 5 µM in PBS or freshly prepared pH buffer. Purified HNE (Elastin Products Company, MO, USA) and purified proteinase 3 (Sigma-Aldrich, Poole, UK) were made up according to the manufacturer’s instructions to yield appropriate stock concentrations. Stock preparations of purified enzyme were prepared according to manufacturers’ instructions and subsequently diluted appropriately with Phosphate Buffered Saline (PBS, Thermoscientific, MA, USA) and NAP to achieve a final volume of 200 µL per condition and a final NAP concentration of 5 µM. Solutions were prepared directly into 96 well plates (Corning, NY, USA) on ice, with or without the human neutrophil elastase inhibitor Sivelestat (ONO-5046, 100 µM, Tocris, Bristol, UK). Plates were subsequently incubated at 37 °C with fluorescent parameters recorded every minute for 1 h (Fig. 1C, excitation 488 nm, emission 525 nm). All fluorescence parameters were recorded using a microplate reader (Synergy H1 hybrid reader, BioTek, Potton, UK,).

erythrocytes = experiment: Erythrocyte haemolysis (membrane toxicity); assay type: cell-based, human; details: NAP 5 µM or working concentration × 2, 1 h 37 °C, absorbance 350 nm, vs Triton X-100 0.4%
Experimental: (§1) Membrane toxicity of NAP was assessed using erythrocyte haemolysis. Isolated erythrocytes remaining after leukocyte separation were diluted 1:5 with PBS without cations and 50 µL of this red cell suspension was added to wells of a 96-well plate. Working concentration of NAP (5 µM), or working concentration × 2, was added to the relevant well. Positive control wells contained Triton X-100 (0.4%, Sigma-Aldrich) and negative control wells contained PBS w/o only. The 96-well plate was incubated for one hour at 37 °C in a humidified environment. Following incubation, 180 µL of PBS without cations was added to each well and the plate was centrifuged at 2500 rpm for 10 min. 100 µL of supernatant from each well was removed and aliquoted into clean wells. Absorbance at 350 nm was recorded using a plate reader. Triplicate repeats were pooled to yield an overall mean point estimate ± SEM of haemolysis that was expressed as a percentage of the positive control. For neutrophil toxicity freshly isolated human peripheral neutrophils were resuspended at 10 × 10^6 cells/mL in IMDM with 10% autologous serum and cultured for 18hrs ± 5 µM NAP at 37 degrees in a 5% CO2 incubator. […] Duplicate repeats were pooled to yield an overall mean point estimate ± SEM of apoptosis and necrosis that was expressed as a percentage of total cells.

[4] = system: freshly isolated human peripheral neutrophils; experiment: Neutrophil toxicity (Annexin V / propidium iodide flow cytometry); assay type: cell-based; details: 5 µM NAP, 18 h, 37 °C, IMDM with 10% autologous serum, Annexin V/PI
Experimental: as §1

rats = experiment: GLP toxicology study, delivery via the trachea; assay type: in vivo, rat
Experimental: NAP was delivered via the trachea to rats in a Contract Research Organization Good Laboratory Practice (GLP) toxicology study at approximately 700 times the human dose. NAP (100 µg) was instilled and rats underwent necroscopy at 3 and 15 days after delivery. […] The release specifications for NAP drug substance and drug product are shown in Supplementary tables S3 and S4.
All experiments using human volunteers were performed following approval from the appropriate regional ethics committee (REC) and informed consent was obtained from each participant or their personal legal representative for adults with incapacity (in accordance with the Adults with Incapacity (Scotland) Act 2000). BALF for alveolar macrophages: (East of Scotland Research Ethics Committee 1 no: 07/S1102/20), blood for assessment of leucocyte populations (Lothian Research Ethics Committee no: 08/S1103/38), and first-in-human assessment of probe performance and safety (Scotland A Research Ethics Committee no: 12/SS/0004, EudraCT 2011-006169-17, NCT01532024). All methods were performed in accordance with the relevant guidelines and regulations. Animal toxicology was conducted in compliance with UK Good Laboratory Practice Regulations by a third party contract research organization (Covance Laboratories Ltd, Harrogate, UK) under Covance UK Home Office License for toxicology. […]

[5] = GLP AMES mutagenicity test, microsuspension-modified method
[6] = system: isolated healthy human neutrophils; experiment: Confocal time course of primed neutrophils activated with fMLF; assay type: cell-based; details: co-incubation with Sivelestat 100 µM; Cytochalasin B primed, fMLF 500 nM, NAP 5 µM
Experimental: Where stated commercial stains were used in accordance with the manufacturer’s instructions or applied to a suspension of the relevant cells in eppendorfs at a concentration of 1:1000 from delivered stock for 10 min at 37 °C and 500 rpm using an orbital plate shaker before undergoing one wash in PBS without divalent cations as described above. 8 well Lab-Tek II confocal chambers (VWR, PA, USA) were coated in fibronectin (1 µg/ml, Sigma-Aldrich) for 10 min at 37 °C. Wells were then washed twice before the addition of the appropriate cell suspension. Cells were typically seeded at a concentration of 0.5—1 × 10^6/mL. […]
A laser scanning confocal imaging system (LSM510; Carl Zeiss, Jena, Germany), incorporating an upright Axioskop FS2 microscope (× 63 objective) was used for image acquisition. […] Fluorescein based dyes were excited with a dedicated 488 nm laser line, with emitted light detected at 500–530 nm. Syto 82 nuclear, calcein cytoplasmic dyes and CellMask Orange plasma membrane stain (all Invitrogen, Thermoscientific) were excited with a dedicated 543 nm line, with emitted light detected at 560–600 nm. Syto 60 (Invitrogen, Thermoscientific) stain was excited with a dedicated 633 nm line, with emitted light detected at 650–680 nm. PKH labelled bacteria were excited with a dedicated 633 nm line with emitted light detected at 650–705 nm. […]

With O.O=C(N/N=C/c1ccc(O)c(O)c1)c1cc2ccccc2cc1O [Dynasore Hydate, Dynasore Hydrate] as the molecule, how does the “effect of inhibitor on intracellular NAP fluorescent signal (flow cytometry)” value (shortened to “effect of inhibitor … (flow cytometry)”) [1] read?
Its value is “abrogated”.

For c1ccc2c(c1)[I+]c1ccccc1-2 [DPI, Diphenyleneiodonium], which “effect of inhibitor … (flow cytometry)” value [1] is on record?
Its value is “reduced the overall mean fluorescent intensity”.

For carboxyfluorescein, which “change in fluorescence with pH” value [2] is on record?
Its value is “expected increase in fluorescence as H^+ concentration falls”.

With CCCC[C@H](NC(=O)[C@@H](NC(=O)[C@H](CCC(=O)O)NC(=O)[C@H](CCC(=O)O)NC(=O)COCCOCCNC(=O)c1ccc2c(c1)C(=O)OC21c2ccc(O)cc2Oc2cc(O)ccc21)[C@@H](C)CC)C(=O)N[C@@H](CCCNC(=N)N)C(=O)N[C@@H](CCCNC(=N)N)C(=O)NCCCOCC(COCCCNC(=O)[C@H](CCCNC(=N)N)NC(=O)[C@H](CCCNC(=N)N)NC(=O)[C@H](CCCC)NC(=O)[C@@H](NC(=O)[C@H](CCC(=O)O)NC(=O)[C@H](CCC(=O)O)NC(=O)COCCOCCNC(=O)c1ccc2c(c1)C(=O)OC21c2ccc(O)cc2Oc2cc(O)ccc21)[C@@H](C)CC)(COCCCNC(=O)[C@H](CCCNC(=N)N)NC(=O)[C@H](CCCNC(=N)N)NC(=O)[C@H](CCCC)NC(=O)[C@@H](NC(=O)[C@H](CCC(=O)O)NC(=O)[C@H](CCC(=O)O)NC(=O)COCCOCCNC(=O)c1ccc2c(c1)C(=O)OC21c2ccc(O)cc2Oc2cc(O)ccc21)[C@@H](C)CC)NC(N)=O (stereo partly drawn) [NAP] (I: {5FAM-AEEA}-EEI[Nle]RR / II: {5FAM-AEEA}-EEI[Nle]RR / III: {5FAM-AEEA}-EEI[Nle]RR; linker I:C-II:C-III:C via X1) as the molecule, how does the “increase in fluorescence compared to the resting state” value ([3]; NAP 5 µM in PBS with purified HNE, 37 °C, read every minute for 1 h, ex 488 nm / em 525 nm, three independent experiments) read?
The value was ~350%.

What about the red cell haemolysis (erythrocytes) of the same molecule?
Its red cell haemolysis is “did not cause”.

And the neutrophil necrosis [4]?
The neutrophil necrosis was “did not cause”.

And the “local or distant organ toxicity” value (rats; NAP 100 µg instilled via the trachea (approximately 700 times the human dose), necroscopy at 3 and 15 days)?
Its value is “No local or distant organ toxicity was observed”.

And the “haematological or other metabolic consequences” value (rats; NAP 100 µg instilled via the trachea, 3 and 15 days)?
Its value is “no haematological or other metabolic consequences”.

What about the mutagenicity [5] of the same molecule?
The mutagenicity was “no mutagenicity”.

For CC(C)(C)C(=O)Oc1ccc(S(=O)(=O)Nc2ccccc2C(=O)NCC(=O)O)cc1 [Sivelestat], which “effect of inhibitor on cleavage of NAP by HNE” value ([3]; Sivelestat 100 µM, NAP 5 µM, 100 nM HNE) is on record?
Its value is “completely abrogated”.

And the “effect of inhibitor … (flow cytometry)” value [1]?
Its value is “abrogated”.

What about the “effect of inhibitor on intracellular NAP fluorescent signal (confocal)” value [6] of the same molecule?
The value was “abrogated”.
